Like-named read-outs stand apart in the source and are kept apart here. Marks after values point to notes of the source that are not given here.
Assay: Absorption spectrum measured in solution
[1] = molar extinction coefficient at λmax, solvent as given for λmax

Compound | ε [L/mol/cm] | λ1/2-λ1/10 [nm] | λmax | also measured
CCN(CC)c1ccc(N=Nc2nc(C#N)c(C#N)n2C)c([N-]P(=O)(OCC(F)(F)C(F)F)OCC(F)(F)C(F)F)c1.CCN(CC)c1ccc(N=Nc2nc(C#N)c(C#N)n2C)c([N-]P(=O)(OCC(F)(F)C(F)F)OCC(F)(F)C(F)F)c1.[Co+2] [Example 3] | 92203 | 33 | 538^5) nm | 
CCN(CC)c1ccc(N=Nc2nc(C#N)c(C#N)n2C)c([N-]P(=O)(OCC(F)(F)C(F)F)OCC(F)(F)C(F)F)c1.CCN(CC)c1ccc(N=Nc2nc(C#N)c(C#N)n2C)c([N-]P(=O)(OCC(F)(F)C(F)F)OCC(F)(F)C(F)F)c1.[Cu+2] [Example 4] | 88071 | 29 | 533^5) nm | 
CCN(CC)c1ccc(N=Nc2nc(C#N)c(C#N)[nH]2)c([N-]P(=O)(OCC(F)(F)C(F)F)OCC(F)(F)C(F)F)c1.CCN(CC)c1ccc(N=Nc2nc(C#N)c(C#N)[nH]2)c([N-]P(=O)(OCC(F)(F)C(F)F)OCC(F)(F)C(F)F)c1.[Ni+2] [Example 5] | 70893 | 21 | 510^4) nm | 
CCCNS(=O)(=O)[N-]c1cc(N(CC)CC)ccc1N=Nc1nc(C#N)c(C#N)[nH]1.CCCNS(=O)(=O)[N-]c1cc(N(CC)CC)ccc1N=Nc1nc(C#N)c(C#N)[nH]1.[Ni+2] [Example 6] |  |  |  | ε [1]: 34523 L/mol/cm; λ1/2-λ1/10 (on the long wavelength flank): 21 nm
CCN(CC)c1ccc(N=Nc2nc(-c3ccccc3)ns2)c([N-]S(=O)(=O)N(C)C)c1.CCN(CC)c1ccc(N=Nc2nc(-c3ccccc3)ns2)c([N-]S(=O)(=O)N(C)C)c1.[Ni+2] [Example 11] | 86514 |  | 530 nm | 
CCN(CC)c1ccc(N=Nc2nc(-c3ccccc3)ns2)c([N-]S(=O)(=O)N(C)C)c1.CCN(CC)c1ccc(N=Nc2nc(-c3ccccc3)ns2)c([N-]S(=O)(=O)N(C)C)c1.[Co+2] [Example 12] | 92750 | 32 | 551 nm | 
CCN(CC)c1ccc(N=Nc2nc(C#N)c(C#N)n2C)c([N-]S(=O)(=O)N(C)C)c1.CCN(CC)c1ccc(N=Nc2nc(C#N)c(C#N)n2C)c([N-]S(=O)(=O)N(C)C)c1.[Ni+2] [Example 15] | 107238 | 21 | 540 nm | 
CCN(CC)c1ccc(N=Nc2nc(C#N)c(C#N)n2C)c([N-]S(=O)(=O)N(C)C)c1.CCN(CC)c1ccc(N=Nc2nc(C#N)c(C#N)n2C)c([N-]S(=O)(=O)N(C)C)c1.[Co+2] [Example 16] | 94990 | 33 | 543 nm | 
CCN(CC)c1ccc(N=Nc2nc(C#N)c(C#N)n2C)c([N-]S(=O)(=O)N(C)C)c1.CCN(CC)c1ccc(N=Nc2nc(C#N)c(C#N)n2C)c([N-]S(=O)(=O)N(C)C)c1.[Zn+2] [Example 17] | 111931 | 12 |  | 
CCN(CC)c1ccc(N=Nc2nc(C#N)c(C#N)[nH]2)c([N-]S(=O)(=O)N(C)C)c1.CCN(CC)c1ccc(N=Nc2nc(C#N)c(C#N)[nH]2)c([N-]S(=O)(=O)N(C)C)c1.[Ni+2] [Example 18] |  |  |  | λmax (in methanol): 518^4) nm; ε [1]: 92143 L/mol/cm; λ1/2-λ1/10 (on the long wavelength flank): 21 nm
CCN(CC)c1ccc(N=Nc2nc(-c3ccccc3)ns2)c([N]([Ni][N](c2cc(N(CC)CC)ccc2N=Nc2nc(-c3ccccc3)ns2)P(=O)(OC)c2ccccc2)P(=O)(OC)c2ccccc2)c1 (centres unmarked) [Example 23] | 90126 | 61 | 538^5) nm | 
CCN(CC)c1ccc(N=Nc2nnc(C)s2)c([N]([Ni][N](c2cc(N(CC)CC)ccc2N=Nc2nnc(C)s2)S(=O)(=O)N(C)C)S(=O)(=O)N(C)C)c1 [Example 29] |  |  |  | λmax (in methylene chloride): 554 nm; ε [1]: 84070 L/mol/cm; λ1/2-λ1/10 (on the long wavelength flank): 26 nm
CCN(CC)c1ccc(N=Nc2nnc(C)s2)c([N]([Co][N](c2cc(N(CC)CC)ccc2N=Nc2nnc(C)s2)S(=O)(=O)N(C)C)S(=O)(=O)N(C)C)c1 [Example 30] |  |  |  | λmax (in methylene chloride): 554 nm
CCN(CC)c1ccc(N=Nc2nc(-c3ccccc3)ns2)c([N]([Ni][N](c2cc(N(CC)CC)ccc2N=Nc2nc(-c3ccccc3)ns2)S(=O)(=O)NCC(F)(F)C(F)F)S(=O)(=O)NCC(F)(F)C(F)F)c1 [Example 31] |  |  |  | λmax (in methylene chloride): 556 nm
CCN(CC)c1cc([N]([Ni][N](c2cc(N(CC)CC)c(OC)cc2N=Nc2nc(-c3ccccc3)ns2)S(=O)(=O)N(C)C)S(=O)(=O)N(C)C)c(N=Nc2nc(-c3ccccc3)ns2)cc1OC [Example 35] |  |  | 544 nm | 
CCN(CC)c1cc([N]([Ni][N](c2cc(N(CC)CC)c(C)cc2N=Nc2nc(-c3ccccc3)ns2)S(=O)(=O)N(C)C)S(=O)(=O)N(C)C)c(N=Nc2nc(-c3ccccc3)ns2)cc1C [Example 36] |  |  | 552^5) nm | 
CCN(CC)c1cc([N]([Co][N](c2cc(N(CC)CC)c(C)cc2N=Nc2nc(-c3ccccc3)ns2)S(=O)(=O)N(C)C)S(=O)(=O)N(C)C)c(N=Nc2nc(-c3ccccc3)ns2)cc1C [Example 38] |  |  | 554^5) nm | 

From patent publication US20060280894A1, “Metal complexes as light-absorbing compounds in the information layer of optical data carriers” (priority 2003, published 2006)
